Test results published in patent publication US20200187499A1, “SUBSTITUTED BENZYL-4-AMINOPICOLINIC ESTERS AND PYRIMIDINO-4-CARBOXYLIC ESTERS, METHODS FOR THE PRODUCTION THEREOF, AND USE THEREOF AS HERBICIDES AND PLANT GROWTH REGULATORS” (Bayer CropScience Aktiengesellschaft, priority 2017, published 2020).

Experiments:
Assay type in all cases: in vivo
ECHCG [1] = experiment: Post-emergence herbicidal action; settings: Table 5, post-emergence (PO), 320 g/ha, assessed after about 3 weeks
How it was run: (§1)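 Percent herbicidal activity was judged by eye roughly 3 weeks post-treatment, where 0% matched untreated plants and 100% meant death. Test plants at the one-leaf stage had received a foliar spray of WP- or EC-formulated compound in aqueous form.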

SETVI [2] = experiment: Post-emergence herbicidal action; settings: Table 5, post-emergence (PO), 320 g/ha, assessed after about 3 weeks
How it was run: as §1

STEME = experiment: Post-emergence herbicidal action; settings: Table 5, post-emergence (PO), 320 g/ha, assessed after about 3 weeks
How it was run: as §1

VIOTR [3] = experiment: Post-emergence herbicidal action; settings: Table 5, post-emergence (PO), 320 g/ha, assessed after about 3 weeks
How it was run: as §1

AMARE [4] = experiment: Post-emergence herbicidal action; settings: Table 5, post-emergence (PO), 320 g/ha, assessed after about 3 weeks
How it was run: as §1

PHBPU = experiment: Post-emergence herbicidal action; settings: Table 5, post-emergence (PO), 320 g/ha, assessed after about 3 weeks
How it was run: as §1

ABUTH [5] = experiment: Post-emergence herbicidal action; settings: Table 5, post-emergence (PO), 320 g/ha, assessed after about 3 weeks
How it was run: as §1

POLCO [6] = experiment: Post-emergence herbicidal action; settings: Table 5, post-emergence (PO), 320 g/ha, assessed after about 3 weeks
How it was run: as §1

ECHCG [7] = experiment: Pre-emergence herbicidal action; settings: Table 2, pre-emergence (PE), 320 g/ha, scored after 3 weeks
How it was run: (§2)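 Compounds were applied as aqueous suspension or emulsion to the soil surface over freshly covered seeds in sandy loam. After 3 weeks under greenhouse conditions, percent herbicidal effect was assessed visually against untreated plants.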

SETVI [8] = experiment: Pre-emergence herbicidal action; settings: Table 2, pre-emergence (PE), 320 g/ha, scored after 3 weeks
How it was run: as §2

VIOTR [9] = experiment: Pre-emergence herbicidal action; settings: Table 2, pre-emergence (PE), 320 g/ha, scored after 3 weeks
How it was run: as §2

AMARE [10] = experiment: Pre-emergence herbicidal action; settings: Table 2, pre-emergence (PE), 320 g/ha, scored after 3 weeks
How it was run: as §2

ALOMY = experiment: Pre-emergence herbicidal action; settings: Table 2, pre-emergence (PE), 320 g/ha, scored after 3 weeks
How it was run: as §2

ABUTH [11] = experiment: Pre-emergence herbicidal action; settings: Table 2, pre-emergence (PE), 320 g/ha, scored after 3 weeks
How it was run: as §2

POLCO [12] = experiment: Pre-emergence herbicidal action; settings: Table 2, pre-emergence (PE), 320 g/ha, scored after 3 weeks
How it was run: as §2

Structure (SMILES) | Herbicidal action against ECHCG (ECHCG [1]) | Herbicidal action against SETVI (SETVI [2]) | Herbicidal action against STEME (STEME) | Herbicidal action against VIOTR (VIOTR [3]) | Herbicidal action against AMARE (AMARE [4]) | Herbicidal action against PHBPU (PHBPU) | Herbicidal action against ABUTH (ABUTH [5]) | Herbicidal action against POLCO (POLCO [6]) | Herbicidal action against ECHCG (ECHCG [7]) | Herbicidal action against SETVI (SETVI [8]) | Herbicidal action against VIOTR (VIOTR [9]) | Herbicidal action against AMARE (AMARE [10]) | Herbicidal action against ALOMY (ALOMY) | Herbicidal action against ABUTH (ABUTH [11]) | Herbicidal action against POLCO (POLCO [12])
Nc1cc(-c2ccc3occc3c2)nc(C(=O)OCc2ccc(F)c(F)c2F)c1Cl [Example I-13] | 90% | 90% | 100% | 100% | 100% | 80% | 100% | 100% | 90% | 100% | 30% | 100% | 80% | 30% | 100%
Nc1cc(-c2ccc3ccsc3c2)nc(C(=O)OCc2ccccc2F)c1Cl [Example I-01] | 90% | 80% | 100% | 50% | 100% | 90% | 100% | 100% | 100% | 90% | 70% | 100% | 60% | 80% | 100%
Nc1c(F)c(-c2ccc3ccoc3c2)nc(C(=O)OCc2ccc(F)cc2)c1Cl [Example I-04] | 100% | 90% | 100% | 50% | 100% | 40% | 100% | 80% | 90% | 70% | 40% | 100% | 40% | 90% | 50%
COc1ccc(COC(=O)c2nc(-c3ccc4ccoc4c3)c(F)c(N)c2Cl)cc1 [Example I-03] | 100% | 90% | 100% | 100% | 100% | 40% | 100% | 40% | 90% | 40% | 90% | 100% | 20% | 80% | 50%
Nc1cc(-c2ccc3ccsc3c2)nc(C(=O)OCc2ccc(F)cc2)c1Cl [Example I-07, 4-fluorobenzyl 4-amino-6-(1-benzothiophen-6-yl)-3-chloropyridine-2-carboxylate] | 90% | 100% | 0% | 60% | 100% | 80% | 100% | 80% | 100% | 90% | 50% | 100% | 90% | 80% | 100%
Nc1cc(-c2ccc3sccc3c2)nc(C(=O)OCc2ccc(F)cc2F)c1Cl [Example I-18] | 100% | 90% | 80% | 90% | 100% | 80% | 100% | 80% | 100% | 70% | 20% | 100% | 30% | 40% | 10%
Nc1cc(-c2ccc3occc3c2)nc(C(=O)OCc2ccc(F)cc2)c1Cl [Example I-05] | 100% | 100% | 100% | 90% | 100% | 80% | 100% | 30% | 90% | 90% | 50% | 90% | 30% | 50% | 90%
Nc1cc(-c2ccc3ccsc3c2)nc(C(=O)OCc2cccc(F)c2)c1Cl [Example I-10] | 90% | 90% | 100% | 70% | 100% | 80% | 100% | 100% | 100% | 90% | 40% | 100% | 70% | 30% | 0%
Nc1cc(-c2ccc3ccoc3c2)nc(C(=O)OCc2cccc(F)c2)c1Cl [Example I-02] | 90% | 100% | 100% | 70% | 100% | 70% | 90% | 100% | 100% | 90% | 70% | 100% | 80% | 30% | 100%
Nc1cc(-c2ccc3sccc3c2)nc(C(=O)OCc2cccc(F)c2)c1Cl [Example I-09] | 100% | 90% | 100% | 90% | 100% | 80% | 100% | 70% | 100% | 90% | 60% | 90% | 20% | 70% | 90%
Nc1cc(-c2ccc3sccc3c2)nc(C(=O)OCc2ccc(C(F)(F)F)cc2)c1Cl [Example I-16] | 90% | 90% | 80% | 90% | 100% | 80% | 100% | 90% | 100% | 80% | 30% | 80% | 30% | 80% | 70%
